Reference: US20090099218A1, “SYNTHESIS OF NOVEL TUBULIN POLYMERIZATION INHIBITORS: BENZOYLPHENYLUREA (BPU) SULFUR ANALOGS” (priority 2007, published 2009)

Legend:
[1] = test system: Panc1; assay: MTT growth inhibition, pancreatic cell line Panc1; type: cell-based; details: MTT assay, 96 h treatment, average of three independent experiments
Protocol: (§1) Eight of these analogs 6d, 6h, 6n, 6g, 7b, 7d, 8g, and 8h were tested for their cytotoxicity in seven pancreatic cell lines ASPC1, Panc1, Panc203, Panc430, Pane 1005, MiaPaca2, and HS766T using MTT assay. Cells were trypsinized, seeded at 5×10^3 cells/well in 96-well plate and allowed to grow for 24 hours before the treatment with exponential increasing concentrations of drugs in the presence of 10% FBS. After a 96-hours period of treatment, 20 μl of MTT solution (5 mg/ml in PBS) were added to each well, and the plates were then incubated for 3 hours at 37° C. Medium was then replaced with 100 μl of DMSO per well. Plates were shaken and the optical density was measured at 570 nm using a multiwell plate reader (Bio-Rad, Model 550, Bio-Rad Inc., Hercules, Calif.). Each experiment was performed in triplicate for each drug concentration and was carried out independently at least 3 times. The IC50 value was defined as the concentration needed for a 50% reduction in the absorbance calculated based on the survival curves. Response to drug treatment was assessed by standardizing treatment groups to untreated controls. Compounds activity was compared with compound 1.
(§2) Table 2 (Growth Inhibition of Pancreatic Cancer Cell Lines by BPU and BPTU Analogues (IC50) a) compares the cytotoxicity of a series of new derivatives against a panel of seven pancreatic cancer cell lines, as determined by MTT assay. See, Mosmann, T., J. Immunol. Methods 65:55-63 (1983).

[2] = test system: Panc430; assay: MTT growth inhibition, pancreatic cell line Panc430; type: cell-based; details: MTT assay, 96 h treatment; average of three independent experiments
Protocol: as §1, §2

[3] = test system: Panc203; assay: MTT growth inhibition, pancreatic cell line Panc203; type: cell-based; details: MTT assay, 96 h treatment, average of three independent experiments
Protocol: as §1, §2

[4] = test system: Panc1005; assay: MTT growth inhibition, pancreatic cell line Panc1005; type: cell-based; details: MTT assay, 96 h treatment, average of three independent experiments
Protocol: as §1, §2

[5] = test system: HS766; assay: MTT growth inhibition, pancreatic cell line HS766; type: cell-based; details: MTT assay, 96 h treatment, average of three independent experiments
Protocol: as §1, §2

[6] = test system: Miapaca2; assay: MTT growth inhibition, pancreatic cell line Miapaca2; type: cell-based; details: MTT assay, 96 h treatment, average of three independent experiments
Protocol: as §1, §2

[7] = test system: ASPC1; assay: MTT growth inhibition, pancreatic cell line ASPC1; type: cell-based; details: MTT assay, 96 h treatment, average of three independent experiments
Protocol: as §1, §2

[8] = test system: tubulin; assay: Inhibition of tubulin polymerization; type: biochemical; details: Tubulin was at 10 μM; read-out: tubulin IC50 ± SD (inhibition of tubulin polymerization)
Protocol: Briefly, tubulin polymerization was followed turbidimetrically at 350 nm in Beckman model DU7400 and DU7500 recording spectrophotometers equipped with electronic temperature controllers. […] Samples were pre-incubated for 15 min at 30° C. and chilled on ice. GTP (final concentration, 0.4 mmol/L) was added to each reaction mixture, and these were placed in cuvettes held at 0° C. Baselines were established, the temperature was raised to 30° C.

[9] = test system: LAPC-4; assay: MTT growth inhibition, prostate cancer cell line LAPC-4; type: cell-based, human; details: MTT assay, average of three independent experiments
Protocol: (§3) This MTT assay was carried using human prostate cancer cell lines CWR22R, LAPC-4 and LnCap using Promega cell titer 96 nonradioactive cell proliferation kits. Cells were trypsinized and centrifuged at 1000 rpm for 5 minutes and the supernatant was aspirated. Cells were resuspended with HBSS to a concentration of 10^6/ml. Cell suspension was diluted in serum containing medium to plate 2000 cells/well/0.2 ml. Cell suspension was transferred to sterile solution basin. Cells were plated using multichannel pipette set at 200 μl and incubated overnight for attachment. One plate was prepared for day 0 MTT assay as follows: 100 μl of media was removed from each well using multichannel pipette and 15 μl of MTT reagent was added. Plates were incubated at 37° C. for 4 hrs. […] of STOP solution was added to each well and incubated at room temperature for 1 hour. Absorbance was measured at 570 and 650 nm on plate reader. All the media from the remaining plates were carefully removed and the cells were treated with the media containing drug. MTT assays were done on days 0, 3, 5 and 7. In the preliminary screening […] BPU sulfur analogs 6l, 6h, 6n, 7d and 8h were screened and their activity was compared with compound 1.
(§4) Compounds with significant inhibitory activity in pancreatic cancer cells were further evaluated against prostate cancer cell lines in the MTT assay, (Mosmann, T., J. Immunol. Methods 65:55-63 (1983)) and the results were compared to those for compound 1 (Table 3).

[10] = test system: LnCaP; assay: MTT growth inhibition, prostate cancer cell line LnCaP; type: cell-based, human; details: MTT assay, average of three independent experiments
Protocol: as §3, §4

[11] = test system: CWR22R; assay: MTT growth inhibition, prostate cancer cell line CWR22R; type: cell-based, human; details: MTT assay, average of three independent experiments
[12] = test system: seven pancreatic cell lines; assay: MTT cytotoxicity, panel of seven pancreatic cancer cell lines; type: cell-based; details: Pancreatic cancer cell, all seven pancreatic cell lines
Protocol: as §1, §2

[13] = test system: pancreas cancer xenografts; assay: In vivo growth inhibition of patient-derived pancreas cancer xenografts; design: species or system athymic nude mice
Protocol: Six-week-old female athymic nude mice (Harlan) were used. The research protocol was approved by the Johns Hopkins University Animal Care and Use Committee, and animals were maintained in accordance to guidelines of the American Association of Laboratory Animal Care. Surgical non-diagnostic specimens from patients who had undergone surgery at the Johns Hopkins Hospital were implanted s.c. in one to two mice for each patient, with two small pieces per mouse (F1 generation). Tumors were grown to 1.5 cm^3 and then harvested, divided into small ˜3×3×3 mm pieces, and transplanted to another five mice, with two tumors per mouse (F2 generation). After a second growth passage, tumors were excised and propagated to cohorts of ≧20 mice. These groups constituted the F3, or treatment cohort. Tumors from this third mouse-to-mouse passage were allowed to grow to ˜200 mm3, at which time mice were randomized into three treatment groups, with five to six mice (10 evaluable tumors) in each group: control (vehicle), 6n (50 mg/kg i.p. twice per week), and 7d (50 mg/kg i.p. twice per week). Docetaxel treatment was given to selected groups at a dose of 30 mg/kg i.p. once a week for 2 weeks. Mice were monitored daily for signs of toxicity and were weighed thrice per week. Tumor size was evaluated twice per week by caliper measurements using the following formula: tumor volume=[length×width^2]/2. Relative tumor growth inhibition was calculated by relative tumor growth of treated mice divided by relative tumor growth of control mice from the onset of therapy (T/C).
To assess the treatment effect, a hierarchical linear regression model was used with random intercepts and fixed slopes. Based on the results of exploratory plots, the assumption of fixed effects for slopes seemed reasonable. This model allowed for mouse effects to be nested within patient effects so that the hierarchical structure is fully accounted for. Specifically, the following linear regression model was fitted: log(γiJt)=a1ijtimeijt+b2jtimeijt×trtij+βtime^2ijt+eijt where j indexes patient, i indexes mouse, and t indexes time; yijt is the percentage change in tumor volume (compared with day 0) in mouse i, which is a xenograft for patient j at time t; and trtij is treatment (1=treated, 0=control) received by mouse i, which is a xenograft for patient j. […] An intercept and main effect of treatment were not included in the model that makes two assumptions: (a) at time 0, the change from baseline is 0 (which is empirically true), and (b) at baseline, the treated and untreated curves intersect. The model was fit using Win-Bugs software that estimates models using a Markov chain Monte Carlo estimation procedure. A burn-in of 10,000 iterations was done, and then the chain was run for an additional 20,000 iterations, of which every 10th iteration was saved for inference. Several chains were run with different starting values to ensure convergence. No convergence issues arose. The fitted model was used to make inferences with respect to the treatment effect and to create fitted regression lines (rescaled on the Y-axis for clearer interpretation). Point estimates of variables of interest (e.g., expected difference in tumor volume between treated and control at 28 days) and 95% credible intervals were based on the mean of posterior distributions and the 2.5th and 97.5th quantiles of the posterior distribution, respectively. The comparisons between means and proportions obtained from the biological studies were done using Student's t-test and χ^2 method, respectively. ANOVA was used when three or more variables were compared.
Tumors from nine cases of pancreatic cancer were used to establish xenografts in nude mice, and the animals were treated with either vehicle, 6n, or 7d (FIG. 36A). The level of efficacy varied both between drugs and within cases treated with each drug. FIG. 37 provides an integrated summary of all data points obtained in the studies. […]

[14] = test system: tubulin; assay: Inhibition of [3H]colchicine binding; details: Tubulin 1 μM; [3H]colchicine and inhibitor at 5 μM

Row | SMILES | IC50 ([1]; Homo sapiens, PANC-1) | IC50 [2] | IC50 ([3]; Homo sapiens, Panc203) | IC50 ([4]; Homo sapiens, Panc1005) | IC50 ([5]; Homo sapiens, Hs 766) | IC50 ([6]; Homo sapiens, MIA PaCa-2) | IC50 ([7]; Homo sapiens, ASPC1) | other results
1 | Nc1ccccc1OC=NOC=Nc1ccc(Sc2ncccn2)cc1 [Compound 7b] | 7.5 µM | 6.5 µM | 5.5 µM | > 10 µM | 8 µM | 7 µM | 6 µM | –
2 | Nc1ccccc1C(=O)NC(=O)Nc1ccc(Oc2nccc(Br)n2)cc1 [Compound 7c] | – | > 10 µM | – | – | – | – | – | IC50 [8]: 36 ± 0.7 µM; IC50 [9]: 0.75 µM; IC50 [10]: 0.75 µM; IC50 [1]: 3.5 µM; IC50 [3]: > 10 µM; IC50 [4]: > 10 µM; IC50 [5]: 0.27 µM; IC50 [6]: 0.92 µM; IC50 [11]: 2 µM; IC50 [7]: 5.2 µM
3 | O=[N+]([O-])c1ccccc1OC=NOC=Nc1ccc([S+]([O-])c2ncc(Br)cn2)cc1 (stereo not shown) [Compound 8g] | 6.5 µM | 5.5 µM | 5.5 µM | 5.5 µM | 6.5 µM | 8 µM | 2.5 µM | IC50 [12]: 2.5 to 8 µM
4 | O=C(NC(=O)c1ccccc1[N+](=O)[O-])Nc1ccc(S(=O)(=O)c2ncc(Br)cn2)cc1 [Compound 8h, 1-[4-(5-Bromopyrimidine-2-sulfonyl)phenyl]-3-(2-nitrobenzoyl)-urea] | > 10 µM | > 10 µM | > 10 µM | > 10 µM | > 10 µM | 6.1 µM | > 10 µM | IC50 ([9]; Homo sapiens, LAPC4): 4 µM; IC50 ([10]; Homo sapiens, LNCaP): 0.5 µM; IC50 ([11]; Homo sapiens, 22Rv1): > 10 µM
5 | CC(=O)O[C@@]12CO[C@@H]1C[C@H](O)[C@@]1(C)C(=O)[C@H](O)C3=C(C)[C@@H](OC(=O)[C@H](O)[C@@H](NC(=O)OC(C)(C)C)c4ccccc4)C[C@@](O)([C@@H](OC(=O)c4ccccc4)[C@H]21)C3(C)C [Docetaxel, docetaxel, reference compound] | – | – | – | – | – | – | – | efficacy in case 194 ([13]; case with the greatest expression of MAPT): inactive; efficacy in case 185 ([13]; docetaxel 30 mg/kg i.p. once a week for 2 weeks): lower efficacy than 6n; efficacy in case 215 ([13]; low MAPT-expressing case, docetaxel 30 mg/kg i.p. once a week for 2 weeks): particularly efficacious
6 | COc1cc([C@@H]2c3cc4c(cc3[C@H](O)[C@H]3COC(=O)[C@H]23)OCO4)cc(OC)c1OC [podophyllotoxin, reference compound] | – | – | – | – | – | – | – | colchicine binding (% ± SD), inhibition of [3H]colchicine binding [14]: 77 ± 8%
